Values of other authors as cited in patent US20200367500A1, “MICROCAPSULES WITH BIOCIDES FOR THEIR INCORPORATION INTO REPELLENT AND/OR INSECTICIDE COATINGS” (priority 2019, published 2020).
“Also recorded” adds a separate entry of the source. Where two headings read alike, the source gives them in different places.

Details: for Decomposition time (Mean life): aqueous medium; for Stability in aqueous medium, in words: pH as stated in the value

Row | SMILES | Stability in aqueous medium, in words | Decomposition time (Mean life) (pH 9) | also measured
1 | CCOP(=S)(OCC)Oc1nc(Cl)c(Cl)cc1Cl [Chlorpyrifos] | Stable in neutral and slightly |  | Decomposition time (Mean life) (pH 10): 7 days
2 | CC1(C)C(C=C(Cl)Cl)C1C(=O)OC(C#N)c1cccc(Oc2ccccc2)c1 (centres unmarked) [Cypermethrin] |  | 7 days | 
3 | C=CCC1=C(C)C(OC(=O)C2C(C=C(C)C)C2(C)C)CC1=O [D-allethrin] | Stable at pH 5 after 31 days | (4.3 days) | Decomposition time (Mean life) (pH 7): 500 days
4 | CC1(C)[C@H](C(=O)O[C@H](C#N)c2cccc(Oc3ccccc3)c2)[C@@H]1C=C(Br)Br [Deltamethrin] | more stable in medium acid solutions |  | Decomposition time (Mean life) (pH 7): 0.33 days
5 | CCOP(=S)(OCC)Oc1cc(C)nc(C(C)C)n1 [Diazinon] |  | 136 days | Decomposition time (Mean life) (pH 5): 31 days; Decomposition time (Mean life) (pH 7.5): 185 days
6 | O=C(NC(=O)c1c(F)cccc1F)Nc1ccc(Cl)cc1 [Diflubenzuron] | Stable in a pH range from 5 to 7; also recorded: Hydrolyzed at pH 9 |  | 
7 | CCOC(=O)CC(SP(=S)(OC)OC)C(=O)OCC (centres unmarked) [Malathion] | Quickly hydrolyzed at pH over 7. The optimal pH |  | 
8 | CC1(C)C(C=C(Cl)Cl)C1C(=O)OCc1cccc(Oc2ccccc2)c1 (centres unmarked) [Permethrin] | Stable at pH between 5 and 6. |  | 
9 | CCN(CC)c1nc(C)cc(OP(=S)(OC)OC)n1 [Pirimiphos-methyl] |  |  | Decomposition time (Mean life) (pH 5): 7 days; Decomposition time (Mean life) (pH 8): 5 days
10 | CC(COc1ccc(Oc2ccccc2)cc1)Oc1ccccn1 (centres unmarked) [Pyriproxifen] | Stable in pH between 4 and 9. |  | 
